Laboratory results: patent US11161839B2, “2-quinolone derived inhibitors of BCL6” (Cancer Research Technology Limited, priority 2017, dated 2021)
Like-named read-outs stand apart in the source and are kept apart here.

Tests used:
[1] = target: human BCL6 BTB domain (Trx-6xHis-BCL6) (Homo sapiens (Human), UniProt P41182); assay: HTRF in vitro assay (BCL6 BTB domain / BCOR-AF633 peptide); format: binding; settings: for IC50: read-out: HTRF pIC50 (converted)
Procedure: The % inhibition at each concentration was calculated by normalising FRET ratio to the appropriate high (DMSO with all reagents) and low (DMSO without BCL6) controls.

[2] = target: BCL6-NCOR2(SMRT) corepressor protein-protein interaction (Homo sapiens (Human), UniProt P41182); assay: NanoBRET cell assay in transfected HEK293T cells; format: cell-based; settings: HEK293T cells, 6 hr; for IC50: read-out: NanoBRET cell pIC50 (converted)
Source text: A cellular nano-Bioluminescence Resonance Energy Transfer (nanoBRET) assay (Promega NanoBRET Nano-Glo Detection System, catalogue number N1662) was used to detect inhibition of the BCL6-NCOR2(SMRT) corepressor protein-protein interaction. DNA encoding full length BCL6 and NCOR2 were inserted into pFC32K.NanoLuc and pFC14K.HaloTag vectors (Promega) to produce C-terminal tagged fusion proteins BCL6-nanoLuc and NCOR2-HaloTag, respectively. […] Frozen transfected HEK293T cells were thawed, centrifuged and freezing medium was replaced by phenol red-free OptiMEM+4% FBS (Life Technology). […] Cells were incubated for 6 hr at 37° C./5% CO2 then NanoBRET furimazine substrate (Promega) was added to give a final concentration of 10 μM. After a short centrifugation the plates were read on an Envision (Perkin Elmer) plate reader equipped with a LUM/D600 Dual mirror, Lum 450/40 nm bandpass and D605 nm longpass filters, with a 0.2 sec reading to determine the BRET ratio. The % inhibition at each test concentration was calculated by normalising the BRET ratio to the appropriate high and low controls.

[3] = further generated data (Table 1b), 1 nM Trx-6xHis-BCL6, 0.5 nM anti-6xHis-Terbium cryptate
[4] = further generated data (Table 2b)
[5] = initially generated data (Table 1a), 10 nM Trx-6xHis-BCL6, 1 nM anti-6xHis-Terbium cryptate

Structure (SMILES) | IC50 [2, 4] | HTRF pIC50 [1, 3] | HTRF pIC50 [1, 5] | also measured
COC1CCC1Nc1cc(=O)n(C)c2ccc(Nc3ccnc(Cl)c3C#N)cc12 (racemic) [Example 22a, rac-2-chloro-4-((4-(((1R,2S)-2-methoxycyclobutyl)amino)-1-methyl-2-oxo-1,2-dihydroquinolin-6-yl)amino)nicotinonitrile or rac-2-chloro-4-((4-(((1R,2R)-2-methoxycyclobutyl)amino)-1-methyl-2-oxo-1,2-dihydroquinolin-6-yl)amino)nicotinonitrile] | 2.34 µM | – | – | IC50 [1, 3]: 0.251 µM
CNC(=O)c1cc(Nc2ccc3c(c2)c(NC2CCC2OC)cc(=O)n3C)c(C#N)c(Cl)n1 (racemic) [Example 23a, rac-6-chloro-5-cyano 4-((4-(((1R,2R)-2-methoxycyclobutyl)amino)-1-methyl-2-oxo-1,2-dihydroquinolin-6-yl)amino)-N-methylpicolinamide or rac-6-chloro-5-cyano-4-((4-(((1R,2S)-2-methoxycyclobutyl)amino)-1-methyl-2-oxo-1,2-dihydroquinolin-6-yl)amino)-N-methylpicolinamide] | 6.76 µM | – | – | IC50 [1, 3]: 0.38 µM
CC(Nc1cc(=O)n(C)c2ccc(Nc3nc(N4CCC(F)(F)C(CO)C4)ncc3Cl)cc12)c1ncccn1 (single isomer, unassigned) [Example 26d] | 3.8 µM | – | – | IC50 [1, 3]: 0.501 µM
CC(Nc1cc(=O)n(CCN2C(=O)CCC2=O)c2ccc(Nc3ccnc(Cl)c3C#N)cc12)c1ncccn1 (stereo not shown) [Example 1c, 2-chloro-4-[[1-[2-(2,5-dioxopyrrolidin-1-yl)ethyl]-2-oxo-4-(1-pyrimidin-2-ylethylamino)-6-quinolyl]amino]pyridine-3-carbonitrile] | 22.4 µM | 6.73 | 6.63 | –
CC(Nc1cc(=O)n(CC2CCOCC2)c2ccc(Nc3ccnc(Cl)c3C#N)cc12)c1ncccn1 (stereo not shown) [Example 1d, 2-chloro-4-[[2-oxo-4-(1-pyrimidin-2-ylethylamino)-1-(tetrahydropyran-4-ylmethyl)-6-quinolyl]amino]pyridine-3-carbonitrile] | – | 6.58 | 6.58 | NanoBRET cell pIC50 [2, 4]: 5.45; IC50 ([2]; initially generated data (Table 2a)): 3.55 µM
Cc1cc(C(C)Nc2cc(=O)n(C)c3ccc(Nc4ccnc(Cl)c4C#N)cc23)no1 (stereo not shown) [Example 1m, 2-chloro-4-[[1-methyl-4-[1-(5-methylisoxazol-3-yl)ethylamino]-2-oxo-6-quinolyl]amino]pyridine-3-carbonitrile] | 5.37 µM | 5.88 | 6.15 | –
CNC(=O)c1cc(Nc2ccc3c(c2)c(NC(C)(C)c2ncccn2)cc(=O)n3C)c(C#N)c(Cl)n1 [Example 1u, 6-chloro-5-cyano-N-methyl-4-[[1-methyl-4-[(1-methyl-1-pyrimidin-2-yl-ethyl)amino]-2-oxo-6-quinolyl]amino]pyridine-2-carboxamide] | 0.525 µM | 7.51 | 7.44 | –
CNC(=O)c1cc(Nc2ccc3c(c2)c(NC(C)c2ncccn2)cc(=O)n3C)c(C#N)c(Cl)n1 (stereo not shown) [Example 1v, 6-chloro-5-cyano-N-methyl-4-[[1-methyl-2-oxo-4-(1-pyrimidin-2-ylethylamino)-6-quinolyl]amino]pyridine-2-carboxamide] | 0.933 µM | 7.31 | 6.76 | –
Cc1cc(Nc2ccc3c(c2)c(NC(C)c2ncccn2)cc(=O)n3C)c(C#N)c(Cl)n1 (stereo not shown) [Example 1w, 2-chloro-6-methyl-4-[[1-methyl-2-oxo-4-(1-pyrimidin-2-ylethylamino)-6-quinolyl]amino]pyridine-3-carbonitrile] | 1.58 µM | 6.90 | 6.29 | –
Cn1c(=O)cc(NC(C)(C)c2ncccn2)c2cc(Nc3ccnc(Cl)c3C#N)cnc21 [Example 1x, 2-chloro-4-[[8-methyl-5-[(1-methyl-1-pyrimidin-2-yl-ethyl)amino]-7-oxo-1,8-naphthyridin-3-yl]amino]pyridine-3-carbonitrile] | 1.58 µM | 7.20 | 6.68 | –
C[C@@H](CO)Nc1cc(=O)n(C)c2ccc(Nc3ccnc(Cl)c3C#N)cc12 [Example 3g, (S)-2-Chloro-4-((4-((1-hydroxypropan-2-yl)amino)-1-methyl-2-oxo-1,2-dihydroquinolin-6-yl)amino)nicotinonitrile] | 20.9 µM | 6.39 | 6.43 | –
COCCOCC(C)Nc1cc(=O)n(C)c2ccc(Nc3ccnc(Cl)c3C#N)cc12 (stereo not shown) [Example 11g, 2-chloro-4-((4-((1-(2-methoxyethoxy)propan-2-yl)amino)-1-methyl-2-oxo-1,2-dihydroquinolin-6-yl)amino)nicotinonitrile] | – | 6.05 | – | –
CC(Nc1nc(=O)n(C)c2ccc(Nc3nc(N4C[C@H](C)C[C@H](C)C4)ncc3Cl)cc12)c1ncccn1 (stereo partly drawn) [Example 12e, 6-((5-chloro-2-((3R,5S)-3,5-dimethylpiperidin-1-yl)pyrimidin-4-yl)amino)-1-methyl-4-((1-(pyrimidin-2-yl)ethyl)amino)quinazolin-2(1H)-one:formic acid (1:1)] | – | 6.58 | – | –
Cn1c(=O)nc(NC(C)(C)c2ncccn2)c2cc(Nc3nc(N4CCC(F)(F)C(CO)C4)ncc3Cl)ccc21 (stereo not shown) [Example 12i, 6-((5-chloro-2-(4,4-difluoro-3-(hydroxymethyl)piperidin-1-yl)pyrimidin-4-yl)amino)-1-methyl-4-((2-(pyrimidin-2-yl)propan-2-yl)amino)quinazolin-2(1H)-one] | – | 7.32 | – | –
Cc1cc(C)n(-c2ncc(Cl)c(Nc3ccc4c(c3)c(NC(C)c3ncccn3)cc(=O)n4C)n2)n1 (stereo not shown) [Example 14f, 6-((5-chloro-2-(3,5-dimethyl-1H-pyrazol-1-yl)pyrimidin-4-yl)amino)-1-methyl-4-((1-(pyrimidin-2-yl)ethyl)amino)quinolin-2(1H)-one] | – | 6.49 | – | –
COc1cc(Nc2ccc3c(c2)c(N[C@H](CO)C2CC2)cc(=O)n3C)c(Cl)cn1 [Example 15c, (S)-6-((5-chloro-2-methoxypyridin-4-yl)amino)4-4((1-cyclopropyl-2-hydroxyethyl)amino)-1-methylquinoline-2(1H)-one] | – | – | – | IC50 [1, 3]: 0.575 µM
Cc1nc(N2CCC(C(=O)N(C)C)CC2)nc(Nc2ccc3c(c2)c(NC(C)(C)c2ncccn2)cc(=O)n3C)c1Cl [Example 16c, 1-(5-chloro-4-methyl-6-((1-methyl-2-oxo-4((2-(pyrimidin-2-yl)propan-2-yl)amino)-1,2-dihydroquinolin-6-yl)amino)pyrimidin-2-yl)-N,N-dimethylpiperidine-4-carboxamide] | – | 6.36 | – | –
CC(Nc1cc(=O)n(C)c2ncc(Nc3nc(N4CCC(F)(F)CC4)ncc3Cl)cc12)c1ncccn1 (stereo not shown) [Example 17b, 6-((5-chloro-2-(4,4-difluoropiperidin-1-yl)pyrimidin-4-yl)amino)-1-methyl-4-((1-(pyrimidin-2-yl)ethyl)amino)-4,/- naphthyridin-2(1H)-one] | – | 6.11 | – | –
C[C@@H]1CN(c2ncc(Cl)c(Nc3ccc4c(c3)c(N[C@H](C)C3CC3)cc(=O)n4C)n2)C[C@H](C)O1 [Example 17d, 6-((5-chloro-2-((2S,6R)-2,6-dimethylmorpholino)pyrimidin-4-yl)amino)-4-(((R)-1-cyclopropylethyl)amino)-1-methylquinolin-2(1H)-one:formic acid (1:1)] | – | 6.19 | – | –
CC(Nc1cc(=O)n(C)c2ccc(Nc3nc(N4CCC5(CCCN(C)C5=O)CC4)ncc3Cl)cc12)c1ncccn1 (stereo not shown) [Example 17g, 9-(5-chloro-4-((1-methyl-2-oxo-4((1-(pyrimidin-2-yl)ethyl)amino)-1,2-dihydroquinolin-6-yl)amino)pyrimidin-2-yl)-2-methyl-2,9-diazaspiro[5.5]undecan-1-one] | – | 6.24 | – | –
CC(Nc1cc(=O)n(C)c2ccc(Nc3nc(N4CCc5nn(C)cc5C4)ncc3Cl)cc12)c1ncccn1 (stereo not shown) [Example 17k, 6-((5-chloro-2-(2-methyl-2,4,6,7-tetrahydro-5H-pyrazolo[4,3-c]pyridin-5-yl)pyrimidin-4-yl)amino)-1-methyl-4-((1-(pyrimidin-2-yl)ethyl)amino)quinolin-2(1H)-one] | – | 6.11 | – | –
Cc1nccc(Nc2ccc3c(c2)c(NC(C)c2ncccn2)cc(=O)n3C)c1C#N (stereo not shown) [Example 18a, 2-methyl-4-((1-methyl-2-oxo-4-((1-(pyrimidin-2-yl)ethyl)amino)-1,2-dihydroquinolin-6-yl)amino)nicotinonitrile] | – | 6.30 | – | –
CC(Nc1cc(=O)n(C)c2ccc(Nc3ncnc(Cl)c3Cl)cc12)c1ncccn1 (stereo not shown) [Example 19e, 6-((5,6-dichloropyrimidin-4-yl)amino)-1-methyl-4-((1-(pyrimidin-2-yl)ethyl)amino)quinolin-2(1H)-one] | – | 6.05 | – | –
CNC(=O)c1cc(Nc2ccc3c(c2)c(NC2(C#N)CC2)cc(=O)n3C)c(C#N)c(Cl)n1 [Example 24a, 6-chloro-5-cyano-4-((4-((1-cyanocyclopropyl)amino)-1-methyl-2-oxo-1,2-dihydroquinolin-6-yl)amino)-N-methylpicolinamide] | – | 6.84 | – | –
C[C@@H](Nc1cc(=O)n(C)c2ccc(Nc3nc(N4CCC4)ncc3Cl)cc12)C1CC1 [Example 26a, (R)-6-((2-(azetidin-1-yl)-5-chloropyrimidin-4-yl)amino)-4-((1-cyclopropylethyl)amino)-1-methylquinolin-2(1H)-one: formic acid (1:1)] | – | 6.25 | – | –
C[C@@H]1C[C@H](C)CN(c2ncc(Cl)c(Nc3ccc4c(c3)c(NC(C)(C)c3ncccn3)nc(=O)n4C)n2)C1 [Example 26g, 6-[[5-chloro-2-[(3R,5S)-3,5-dimethyl-1-piperidyl]pyrimidin-4-yl]amino-1-methyl-4-[(1-methyl-1-pyrimidin-2-yl)ethyl)amino]quinazolin-2-one:formic acid (1:1)] | – | 6.54 | – | –
